In patent publication US8207206B2, “(S,R)-3-phenyl-4,5 dihydro-5-isoxazole acetic acid-nitric oxide and use thereof as anti-cancer and antiviral agent” (OncoNOx APS, priority 2007, dated 2012):

Columns and labels:
L929 cells [1] = experiment: CFSE staining, tumor cell proliferation rate (flow cytometry); assay type: cell-based, mouse; details: L929, GIT27-NO 25 μg/ml, after 48 h; control 7.26%
Description: (§1) The cells were seeded in flat-bottom 96-well plates (10^4 cells/well) in a final volume of 200 μl of culture medium, incubated overnight, then treated with different concentrations of the test compound. After 24 h incubation, cell viability was assessed using 3-4,5-dimethylthiazol-2-yl)-2,5-diphenyltetrazolium bromide (MTT) test, based on the mitochondrial-dependent reduction of MTT to formazan, or by crystal violet (CV) staining of adherent cells, as previously described (Mijatovic et al CMLS 2004). The results are presented as % of control values obtained in untreated cultures. The rate of cell proliferation was also determined using flow cytometric analysis of cells labeled with CFSE (Kang 2005). The cells were detached, added with 1.5 μM CFSE and allowed to stand for 15 min at 37° C., then washed twice and seeded in 6-well plates at 2×10^5. The cells were treated with the compound for 24 and 48 h, trypsinized and washed twice. Finally, the cells were resuspended in PBS and analyzed by flow cytometry. Green fluorescence emission from cells illuminated with excitation light of 488 nm was measured with a FACS Calibur (BD, Heidelberg, Germany) and analyzed using the CellQuest software.

B16 cells [2] = experiment: as above; assay type: cell-based, mouse; details: B16, GIT27-NO 25 μg/ml, after 48 h; control 2.00%
Description: as §1

C6 cells [3] = experiment: ROS measurement by DHR fluorescence (flow cytometry); assay type: cell-based, rat; details: C6, 25 μg/ml, 24 h
Description: (§2) The cells grown in the 6-well plate were stained with 1 μM dihydrorhodamine 123 (DHR) 20 min before the treatment with the test compound. At the end of the cultivation period the cells were detached, washed and resuspended in PBS. Analysis of ROS release was performed with a FACSCalibur and analyzed using CellQuest Pro software (Kaludjerovic 2005).

[4] = test system: MAP kinases (p38 MAPK, ERK, JNK) in C6 cells; experiment: Cell-based ELISA for activation of MAP kinases; parameters: species or system rat; details: C6, 25 μg/ml, time course
Description: (§3) Activation of MAP kinases (p38 MAPK, extracellular signal-regulated kinase—ERK, and Jun-N-terminal kinase—JNK) or nuclear factor-κB (NF-κB) was determined by means of a slightly modified method of cell-based ELISA by Versteeg et al. (Versteeg 2000). Since MAP kinases are activated by phosphorylation, and phosphorylation of the inhibitory subunit IκB is a necessary step for NF-κB activation, we used antibodies specific for phosphorylated forms of MAP kinases (p-p38, p-ERK and p-JNK) and IκB (p-IκB). The cells were grown overnight in 96-well flat-bottom plates in a culture medium containing 0.5% FCS and then treated with the test compound diluted in conventional culture medium. At the end of treatment period the cells were fixed in 4% parformaldehyde, endogenous peroxydase was quenched with 1% H2O2 in PBS containing 0.1% Triton X-100 (PBST), and unspecific binding of antibodies was blocked with a PBST solution containing 10% FCS. Primary mouse monoclonal antibodies specific for rat/mouse p-ERK, p-p38, p-JNK, p-IκB (1:200; all from Santa Cruz Biotechnology, Santa Cruz, Calif.) were applied in PBST supplemented with 2% bovine serum albumine (PBSTB), followed by secondary peroxidase-conjugated goat anti-mouse IgG (1:2500 in PBSTB; USB corporation, Cleveland, Ohio) for anti-p-ERK, anti-p-JNK and anti-p-IκB, or anti-mouse IgM (1:4000; USB corporation) for detection of anti-p-p38. Incubation with antibodies was carried out at 37° C. for 1 h. After 15 min incubation with peroxydase substrate TMB and subsequent addition of 0.1 M HCl, the absorbance at 450 nm was measured in an automated microplate reader. To enable comparison between treatment and control, the resulting absorbances were corrected for the cell number determined by crystal violet staining, as described in the original protocol. The results are presented as relative expression in comparison with the control value, which was arbitrarily set to 1.

L929 cells [5] = experiment: LDH release assay (cell death); assay type: cell-based, mouse; details: L929, dose-dependent (24 h) and time-dependent (25 μg/ml), significant after 18 h
Description: (§4) As a marker of necrotic cell death, the release of intracellular enzyme LDH, which mediates the conversion 2,4-dinitrophenylhydrazine into visible hydrazone precipitate in the presence of pyruvate, was measured. The cells were seeded in flat-bottom 96-well plates as indicated above and the assay was performed after 24 h incubation, as previously described (Decker et al). The percentage of dead cells was determined using the following formula: [(E−C)/(T−C)]×100, wherein E is the experimental absorbance of treated cultures measured at 492 nm, C is the absorbance of supernatants of control untreated cells, and T is the absorbance corresponding to the maximal (100%) LDH release of Triton-lysed cells. Cell cycle analysis and apoptosis detection were carried out exactly as described in the literature (Mijatovic CMLS 2005). Acidic vesicular organelles, which characterise autophagy, are stained by vital dye acridin orange. The intensity of red fluorescence is proportional to the acidity and volume of the organelles, while the cytoplasm and nucleolus emits bright green and dim red (Kanzawa 2004). […] Green (510-530 nm) and red (>650 nm) fluorescence emission from 10^4 cells illuminated with blue (488 nm) excitation light was measured with a FACS Calibur and analyzed using CellQuest software.

L929 cells [6] = experiment: ROS measurement by DHR fluorescence (flow cytometry); assay type: cell-based, mouse; details: L929, 25 μg/ml, 24 h
Description: as §2

B16 cells [7] = experiment: as above; assay type: cell-based, mouse; details: B16, 25 μg/ml, 24 h
Description: as §2

C6 cells [8] = experiment: Nitrite accumulation (Griess reaction); assay type: cell-based, rat; details: 24 h
Description: Nitrite accumulation was measured by Griess reaction as previously described (Mijatovic et al CMLS 2004).

[9] = test system: MAP kinases (p38 MAPK, ERK, JNK) in L929 cells; experiment: Cell-based ELISA for activation of MAP kinases; parameters: species or system mouse; details: L929, 25 μg/ml, time course
Description: as §3

[10] = test system: MAP kinases (p38 MAPK, ERK, JNK) in B16 cells; experiment: Cell-based ELISA for activation of MAP kinases; parameters: species or system mouse; details: B16, 25 μg/ml, time course
Description: as §3

L929 cells [11] = experiment: Cell cycle analysis and apoptosis detection (PI staining, flow cytometry); assay type: cell-based, mouse; details: L929, 25 μg/ml, 24 h
Description: as §4

B16 cells [12] = experiment: as above; assay type: cell-based, mouse; details: B16, 25 μg/ml, 24 h
Description: as §4

With `N#Cc1c(COC(=O)CC2CC(c3ccccc3)=NO2)no[n+]1[O-]` (racemic) [GIT27-NO, (S,R)-3-phenyl-4,5 dihydro-5-isoxazole acetic acid-nitric oxide] as the compound, how does the “CFSE R1 = parent population” value (L929 cells [1]) read?
Its value is 13.23%.

What about the “CFSE R1 = parent population” value (B16 cells [2]) of the same compound?
Its value is 6.90%.

What about the “intracellular production of ROS (DHR fluorescence)” value (shortened to “intracellular production of ROS”) (C6 cells [3]) of the same compound?
The value was “markedly increased”.

And the “activation of ERK1/2” value [4]?
Its value is “permanent activation”.

And the “activation of JNK” value [4]?
Its value is “permanent activation”.

What about the “activity of p38” value [4] of the same compound?
Its value is “not affected”.

And the LDH release (L929 cells [5])?
Its LDH release is “induced LDH release”.

What about the “intracellular production of ROS” value (L929 cells [6]) of the same compound?
Its value is “markedly increased”.

And the “intracellular production of ROS” value (B16 cells [7])?
Its value is “markedly increased”.

And the “accumulation of nitrites (NO release) in culture media alone” value (C6 cells [8]; in the absence of cells)?
Its value is “failed to release NO and to form nitrites”.

What about the “accumulation of nitrites in cell culture supernatants” value (C6 cells [8]; in the presence of C6 cells) of the same compound?
Its value is “significant amount of nitrites”.

And the “activation of ERK1/2” value [9]?
Its value is “marked and sustained activation”.

What about the “activation of p38” value [9] of the same compound?
The value was “significant transient activation”.

And the “expression (activation) of JNK” value [9]?
Its value is “without affecting the expression”.

What about the “activation of ERK1/2” value [10] of the same compound?
Its value is “did not affect the activation”.

And the “activation of JNK” value [10]?
Its value is “significant time-dependent activation”.

What about the “activation of p38” value [10] of the same compound?
Its value is “only slight activation”.

What about the “proportion of hypodiploid cells (subG compartment)” value (L929 cells [11]) of the same compound?
The value was “significantly increased proportion of hypodiploid cells”.

And the “percentage of cells in subG compartment (hypodiploid cells)” value (B16 cells [12])?
The value was < 10%.
